The values that follow come from US11166954B2, “Dihydropyrimidine compound and preparation method and use thereof” (SICHUAN KELUN-BIOTECH BIOPHARMACEUTICAL CO., LTD., priority 2016, dated 2021).

Data set [1] concerns hepatitis type B virus (HBV). Briefly: Inhibition of HBV DNA replication in HepG2.2.15 cells. Format: cell-based. The protocol:
The inhibitory effect of the compounds of the present invention on hepatitis type B virus (HBV) was tested. Cytotoxicity and effects on nucleic acid (DNA) replication level of the virus (HBV) of the compounds of the present invention were tested at a virus-cell level.
HepG2.2.15 cells in the logarithmic growth phase were plated in a 96-well plate at a cell concentration of 40 cells per μL. The cells were incubated in a 5% CO2 incubator at 37° C. for 3 days; and the culture medium was replaced with a new one ([…]) before adding compounds. The concentration of the stock solution of each Example compound is 200 μM.

The test system of another data set is HepG2.2.15 cells. Briefly: Cytotoxicity detection (CellTiter-Glo). Format: cell-based. The conditions noted are these: 4 days, highest concentration 150 μM. The procedure: (§1) The test compounds were diluted to 30 mM with DMSO, with 30 mM as the highest concentration, the compounds were subjected to three-fold serial dilution to various concentrations. 0.2 μL of the compounds at various concentrations were added to a 384-well plate, HepG2.2.15 cells having a concentration of 2000 cells per 50 μL were added to each well, and the highest concentration of the test compounds was 150 μM. 1 μL of DMSO was added to corresponding wells for control. The plate was incubated in a 5% CO2 incubator at 37° C. for 4 days; and 50 μL of CellTiter-Glo was added to each well after 4 days. The plate was read for detection, and a half cytotoxic concentration (CC50) was calculated.

Data set [2] deals with T1, hERG potassium ion channel (Homo sapiens, UniProt Q12809).
T1 construct: purchased
Briefly: Predictor hERG Fluorescence Polarization Assay. The class given is binding. The conditions noted are these: hERG fluorescence polarization. From the text: In cardiac muscle cells, hERG (human Ether-a-go-go Related Gene) coded potassium channel mediates delayed rectifier potassium currents (IKr). IKr inhibition is the most important mechanism of QT interval prolongation caused by a drug.
Employing the Predictor™ hERG Fluorescence Polarization Assay, the effect of the compounds on a hERG potassium ion channel was detected.

The nature of data set [3]: Cytotoxicity detection (CellTiter-Glo). The class given is cell-based. The conditions noted are these: human, HepG2.2.15 cells, highest concentration 150 μM. The procedure: as §1
Data set [4] is described as follows: In vivo pharmacokinetics (PK) in rats. The conditions noted are these: male, SD, rat; for Kp: liver/plasma, 2 mg/kg. The protocol: The test compounds were administrated to male SD rats by intravenous (iv) and by gavage (po), respectively, the doses of the iv and po administration were respectively 1 mg/kg and 2 mg/kg, the solvent system for iv administration was 5% DMSO:5% solutol:90% physiological saline, and the solvent system for po administration was 0.5% MC. Blood was collected at multiple time points after iv administration and po administration for the PK study. Plasma samples and liver tissue samples were subjected to protein precipitation, followed by LC-MS/MS analysis. The mass spectrometer was API 5500, and the liquid chromatograph is a Waters ACQUITY I CLASS system; the chromatographic column was an Agela ASB C18 column (2.1 mm×50 mm, 1.9 μm); mobile phase A was water+0.1% formic acid, and phase B was acetonitrile; the flow rate was 0.4 mL/min, and the column temperature was 40° C. The ion source was an ESI source in a positive ion mode, and the scanning manner is multiple reaction monitoring (MRM).

Setting [5] is: HepG2.2.15, HBV DNA replication.

Molecules are shown by their SMILES. Read-outs that look alike come from different tables or passages of the source.

T1 sequence (Q12809 whole entry): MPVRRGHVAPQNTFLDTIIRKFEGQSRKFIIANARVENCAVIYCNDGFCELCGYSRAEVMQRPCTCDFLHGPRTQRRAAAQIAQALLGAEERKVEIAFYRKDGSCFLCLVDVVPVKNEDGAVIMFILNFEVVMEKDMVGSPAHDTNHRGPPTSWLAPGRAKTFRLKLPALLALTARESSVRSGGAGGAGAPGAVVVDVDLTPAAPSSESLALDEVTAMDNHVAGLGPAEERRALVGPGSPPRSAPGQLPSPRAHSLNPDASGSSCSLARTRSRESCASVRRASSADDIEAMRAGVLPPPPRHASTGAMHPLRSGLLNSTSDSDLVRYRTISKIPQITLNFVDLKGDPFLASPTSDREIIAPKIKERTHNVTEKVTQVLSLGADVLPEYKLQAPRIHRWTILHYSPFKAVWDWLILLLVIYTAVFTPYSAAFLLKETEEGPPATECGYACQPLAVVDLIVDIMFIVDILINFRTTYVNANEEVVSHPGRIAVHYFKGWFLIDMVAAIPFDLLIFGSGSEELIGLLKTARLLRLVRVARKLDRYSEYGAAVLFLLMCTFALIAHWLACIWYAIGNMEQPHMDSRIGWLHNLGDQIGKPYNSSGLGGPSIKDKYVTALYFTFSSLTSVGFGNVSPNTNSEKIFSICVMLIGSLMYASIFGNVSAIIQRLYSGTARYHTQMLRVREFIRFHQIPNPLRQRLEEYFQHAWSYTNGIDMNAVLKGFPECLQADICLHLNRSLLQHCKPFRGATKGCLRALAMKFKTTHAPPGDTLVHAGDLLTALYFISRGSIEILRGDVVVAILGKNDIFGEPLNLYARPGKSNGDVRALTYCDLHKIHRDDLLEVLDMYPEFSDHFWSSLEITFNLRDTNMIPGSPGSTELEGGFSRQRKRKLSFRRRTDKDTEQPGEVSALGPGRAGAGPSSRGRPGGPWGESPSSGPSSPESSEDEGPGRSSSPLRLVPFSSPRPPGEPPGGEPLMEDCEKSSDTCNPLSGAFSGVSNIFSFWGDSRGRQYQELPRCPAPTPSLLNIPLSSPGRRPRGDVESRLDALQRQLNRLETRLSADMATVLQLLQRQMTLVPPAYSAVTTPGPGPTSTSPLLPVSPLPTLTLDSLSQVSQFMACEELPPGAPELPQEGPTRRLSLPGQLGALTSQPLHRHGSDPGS

With `CCOC(=O)C1=C(CN2CCC(O)C(F)(F)C2)NC(c2nccs2)=N[C@H]1c1ccc(F)cc1Cl` (single isomer, unassigned) [Isomer A of Example 4], in data set [1] (HBV DNA replication), the EC50 turned out to be 0.0351 µM. The 50% cytotoxic concentration (CC50) in the data set on HepG2.2.15 cells is 43.9 µM. Besides, in data set [2], the half-inhibitory concentration (IC50) is more than 10 µM.
For the compound `CCOC(=O)C1=C(CN2CC(OCC(=O)O)C(F)(F)C2)NC(c2nccs2)=N[C@H]1c1ccc(F)cc1Cl` (stereo partly drawn) [10-42 of Example 12, 2-((1-(((R)-6-(2-chloro-4-fluorophenyl)-5-(ethoxycarbonyl)-2-(thiazol-2-yl)-3,6-dihydropyrimidin-4-yl)methyl)-4,4-difluoropyrrolidin-3-yl)oxy)acetic acid], the EC50 in data set [1] (setting [5]) was determined as 0.165 µM. The CC50 at 4 days in data set [3] was more than 150 µM. In data set [2], the IC50 was more than 10 µM.
For `CCOC(=O)C1=C(CN2CCC(O)C(F)(F)C2)NC(c2nccs2)=NC1c1ccc(F)cc1Cl` (stereo not shown) [10-88 of Example 1, ethyl 4-(2-chloro-4-fluorophenyl)-6-((3,3-difluoro-4-hydroxypiperidin-1-yl)methyl)-2-(thiazol-2-yl)-1,4-dihydropyrimidine-5-carboxylate] the same measures were 0.0247 µM, 61.1 µM and more than 10 µM.
For `CCOC(=O)C1=C(CN2CCC(OCC(=O)O)C(F)(F)C2)NC(c2nccs2)=NC1c1ccc(F)cc1Cl` (stereo not shown) [10-95 of Example 5, 2-((1-((6-(2-chloro-4-fluorophenyl)-5-(ethoxycarbonyl)-2-(thiazol-2-yl)-3,6-dihydropyrimidin-4-yl)methyl)-3,3-difluoropiperidin-4-yl)oxy)acetic acid] the same measures were 0.314 µM, 131 µM and more than 10 µM.
`CCOC(=O)C1=C(CN2CCO[C@H](/C=C/C(=O)O)C2)NC(c2nccs2)=N[C@H]1c1ccc(F)cc1Cl` [10-226 of Example 25, (E)-3-((R)-4-(((R)-6-(2-chloro-4-fluorophenyl)-5-(ethoxycarbonyl)-2-(thiazol-2-yl)-3,6-dihydropyrimidin-4-yl)methyl)morpholin-2-yl)acrylic Acid]: in data set [1] (setting [5]), a half-maximal effect (EC50) was put at 0.0092 µM. Besides, the bioavailability in data set [4] (plasma, po, by gavage, 2.00 mg/kg, read-out: bioavailability (F)) was 47.6%. Besides, the total exposure AUC(0-inf) is 2400 ng·h/mL in data set [4] (iv, 1.00 mg/kg, plasma); 3030 ng·h/mL in data set [4] (po, 2.00 mg/kg, liver); 2290 ng·h/mL in data set [4] (po, 2.00 mg/kg, plasma). Also, the Cmax was determined as 2890 ng/mL in data set [4] (iv, 1.00 mg/kg, plasma); 1690 ng/mL in data set [4] (po, 2.00 mg/kg, liver); 2180 ng/mL in data set [4] (po, 2.00 mg/kg, plasma). For the same compound, the CC50 at 4 days in data set [3] is more than 150 µM. Besides, the 50% inhibitory concentration (IC50) in data set [2] was more than 10 µM.
`CCOC(=O)C1=C(CN2C[C@@H](/C=C/C(=O)O)CC(F)(F)C2)NC(c2nccs2)=N[C@H]1c1ccc(F)cc1Cl` [10-230 of Example 26, (E)-3-((R)-1-(((R)-6-(2-chloro-4-fluorophenyl)-5-(ethoxycarbonyl)-2-(thiazol-2-yl)-3,6-dihydropyrimidin-4-yl)methyl)-5,5-difluoropiperidin-3-yl)acrylic Acid] registered an EC50 in data set [1] (setting [5]) of 0.0112 µM. Also, the Kp in data set [4] (po, po, 2.00 mg/kg, AUCINF liver/plasma, read-out: amount of exposure in liver relative to that in plasma) was approximately 10; in data set [4] (po, po, 2.00 mg/kg, Cmax liver/plasma, read-out: blood-drug concentration in liver relative to that in plasma), approximately 10. Also, the AUC(0-inf) in data set [4] (po, 2.00 mg/kg, liver) worked out at 2340 ng·h/mL; in data set [4] (po, 2.00 mg/kg, plasma), 236 ng·h/mL. Besides, the peak concentration (Cmax) in data set [4] (po, 2.00 mg/kg, liver) turned out to be 1520 ng/mL; in data set [4] (po, 2.00 mg/kg, plasma), 179 ng/mL. Also, the cytotoxic concentration (CC50) at 4 days in data set [3] is 137 µM. Further, the 50% inhibitory concentration (IC50) in data set [2] was more than 10 µM.
